Experimental data taken from paper PMC4730229, “Benzobisthiazoles Represent a Novel Scaffold for Kinase Inhibitors of CLK Family Members” (Biochemistry, 2015).

Assays:
Assay in all cases: Kinase profiling (radioactive filter binding)
Assay type in all cases: biochemical
RIPK2 = RIPK2 (Homo sapiens, UniProt O43353); conditions: 1 uM compound
Procedure: (§1) 3A5 and 5E4 were sent to the International Centre for Kinase Profiling at the MRC Protein Phosphorylation and Ubiquitylation Unit for profiling (as described in ref ([17])). Compounds were profiled against 140 kinases using a radioactive ([^33P]ATP) filter binding assay at a concentration of 1 μM. Results were obtained as inhibition of kinase activity and are listed in Supplementary Table 2.

Aurora B = Aurora B (Homo sapiens, UniProt Q96GD4); conditions: 1 uM compound
Procedure: as §1

SmMLCK = SmMLCK (Homo sapiens, UniProt Q15746); conditions: 1 uM compound
Procedure: as §1

EPH-B2 = EPH-B2 (Homo sapiens, UniProt P29323); conditions: 1 uM compound
Procedure: as §1

FGF-R1 = FGF-R1 (Homo sapiens, UniProt P11362); conditions: 1 uM compound
Procedure: as §1

MSK1 = MSK1 (Homo sapiens, UniProt O75582); conditions: 1 uM compound
Procedure: as §1

PKCγ = PKCγ (Homo sapiens, UniProt P05129); conditions: 1 uM compound
Procedure: as §1

ERK8 = ERK8 (Homo sapiens, UniProt Q8TD08); conditions: 1 uM compound
Procedure: as §1

PKA = PKA (Homo sapiens, UniProt P17612); conditions: 1 uM compound
Procedure: as §1

DAPK1 = DAPK1 (Homo sapiens, UniProt P53355); conditions: 1 uM compound
Procedure: as §1

IR = IR (Homo sapiens, UniProt P06213); conditions: 1 uM compound
Procedure: as §1

RSK2 = RSK2 (Homo sapiens, UniProt P51812); conditions: 1 uM compound
Procedure: as §1

SRPK1 = SRPK1 (Homo sapiens, UniProt Q96SB4); conditions: 1 uM compound
Procedure: as §1

CAMKKb = CAMKKb (Homo sapiens, UniProt Q96RR4); conditions: 1 uM compound
Procedure: as §1

JAK2 = JAK2 (Homo sapiens, UniProt O60674); conditions: 1 uM compound
Procedure: as §1

CSK = CSK (Homo sapiens, UniProt P41240); conditions: 1 uM compound
Procedure: as §1

JNK3 = JNK3 (Homo sapiens, UniProt P53779); conditions: 1 uM compound
Procedure: as §1

NEK2a = NEK2a (Homo sapiens, UniProt P51955); conditions: 1 uM compound
Procedure: as §1

ERK5 = ERK5 (Homo sapiens, UniProt Q13164); conditions: 1 uM compound
Procedure: as §1

MKK1 = MKK1 (Homo sapiens, UniProt Q02750); conditions: 1 uM compound
Procedure: as §1

MARK4 = MARK4 (Homo sapiens, UniProt Q96L34); conditions: 1 uM compound
Procedure: as §1

p38g MAPK = p38g MAPK (Homo sapiens, UniProt P53778); conditions: 1 uM compound
Procedure: as §1

PRK2 = PRK2 (Homo sapiens, UniProt Q16513); conditions: 1 uM compound
Procedure: as §1

CAMK1 = CAMK1 (Homo sapiens, UniProt Q14012); conditions: 1 uM compound
Procedure: as §1

BRSK2 = BRSK2 (Homo sapiens, UniProt Q8IWQ3); conditions: 1 uM compound
Procedure: as §1

MPSK1 = MPSK1 (Homo sapiens, UniProt O75716); conditions: 1 uM compound
Procedure: as §1

JNK2 = JNK2 (Homo sapiens, UniProt P45984); conditions: 1 uM compound
Procedure: as §1

S6K1 = S6K1 (Homo sapiens, UniProt P23443); conditions: 1 uM compound
Procedure: as §1

MELK = MELK (Homo sapiens, UniProt Q14680); conditions: 1 uM compound
Procedure: as §1

CLK2 = CLK2 (Homo sapiens, UniProt P49760); conditions: for CLK2 activity in kinase profiling: 1 uM compound; for inhibition at 1 µM: 1 μM compound, read-out: inhibition of CLK2 in kinase panel
Procedure: as §1

MKK2 = MKK2 (Homo sapiens, UniProt P36507); conditions: 1 uM compound
Procedure: as §1

STK33 = STK33 (Homo sapiens, UniProt Q9BYT3); conditions: 1 uM compound
Procedure: as §1

TAK1 = TAK1 (Homo sapiens, UniProt O43318); conditions: 1 uM compound
Procedure: as §1

MLK3 = MLK3 (Homo sapiens, UniProt Q16584); conditions: 1 uM compound
Procedure: as §1

NUAK1 = NUAK1 (Homo sapiens, UniProt O60285); conditions: 1 uM compound
Procedure: as §1

PAK6 = PAK6 (Homo sapiens, UniProt Q9NQU5); conditions: 1 uM compound
Procedure: as §1

DDR2 = DDR2 (Homo sapiens, UniProt Q16832); conditions: 1 uM compound
Procedure: as §1

MINK1 = MINK1 (Homo sapiens, UniProt Q8N4C8); conditions: 1 uM compound
Procedure: as §1

CDK2-Cyclin A = CDK2-Cyclin A (Homo sapiens, UniProt P24941); conditions: 1 uM compound
Procedure: as §1

MARK2 = MARK2 (Homo sapiens, UniProt Q7KZI7); conditions: 1 uM compound
Procedure: as §1

EPH-B1 = EPH-B1 (Homo sapiens, UniProt P54762); conditions: 1 uM compound
Procedure: as §1

PDK1 = PDK1 (Homo sapiens, UniProt O15530); conditions: 1 uM compound
Procedure: as §1

Chain of CLK2 (P49760 whole entry): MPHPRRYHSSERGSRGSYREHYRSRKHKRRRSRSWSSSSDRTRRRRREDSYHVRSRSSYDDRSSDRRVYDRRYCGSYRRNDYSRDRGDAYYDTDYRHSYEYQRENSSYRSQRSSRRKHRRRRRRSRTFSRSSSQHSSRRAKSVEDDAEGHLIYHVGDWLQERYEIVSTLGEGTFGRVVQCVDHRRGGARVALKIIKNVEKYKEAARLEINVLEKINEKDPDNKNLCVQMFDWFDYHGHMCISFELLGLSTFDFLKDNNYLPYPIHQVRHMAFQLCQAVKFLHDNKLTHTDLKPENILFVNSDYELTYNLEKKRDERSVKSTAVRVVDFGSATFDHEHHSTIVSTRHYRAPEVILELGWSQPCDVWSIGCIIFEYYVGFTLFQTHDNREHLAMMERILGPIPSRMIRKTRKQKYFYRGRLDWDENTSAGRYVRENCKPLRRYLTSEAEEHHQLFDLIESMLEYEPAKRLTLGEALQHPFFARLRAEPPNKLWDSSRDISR
Chain of MKK1 (Q02750 whole entry): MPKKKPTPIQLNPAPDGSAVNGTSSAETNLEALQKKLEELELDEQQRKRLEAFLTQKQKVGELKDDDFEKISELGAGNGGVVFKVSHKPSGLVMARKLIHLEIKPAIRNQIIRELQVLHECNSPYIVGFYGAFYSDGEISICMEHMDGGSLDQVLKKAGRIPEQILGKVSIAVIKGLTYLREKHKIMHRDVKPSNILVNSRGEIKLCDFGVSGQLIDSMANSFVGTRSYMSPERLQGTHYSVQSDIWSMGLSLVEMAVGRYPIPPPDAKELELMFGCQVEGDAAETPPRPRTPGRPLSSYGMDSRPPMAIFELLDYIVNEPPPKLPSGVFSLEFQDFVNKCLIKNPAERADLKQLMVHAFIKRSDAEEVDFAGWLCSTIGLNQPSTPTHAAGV
Chain of SmMLCK (Q15746 923-1914): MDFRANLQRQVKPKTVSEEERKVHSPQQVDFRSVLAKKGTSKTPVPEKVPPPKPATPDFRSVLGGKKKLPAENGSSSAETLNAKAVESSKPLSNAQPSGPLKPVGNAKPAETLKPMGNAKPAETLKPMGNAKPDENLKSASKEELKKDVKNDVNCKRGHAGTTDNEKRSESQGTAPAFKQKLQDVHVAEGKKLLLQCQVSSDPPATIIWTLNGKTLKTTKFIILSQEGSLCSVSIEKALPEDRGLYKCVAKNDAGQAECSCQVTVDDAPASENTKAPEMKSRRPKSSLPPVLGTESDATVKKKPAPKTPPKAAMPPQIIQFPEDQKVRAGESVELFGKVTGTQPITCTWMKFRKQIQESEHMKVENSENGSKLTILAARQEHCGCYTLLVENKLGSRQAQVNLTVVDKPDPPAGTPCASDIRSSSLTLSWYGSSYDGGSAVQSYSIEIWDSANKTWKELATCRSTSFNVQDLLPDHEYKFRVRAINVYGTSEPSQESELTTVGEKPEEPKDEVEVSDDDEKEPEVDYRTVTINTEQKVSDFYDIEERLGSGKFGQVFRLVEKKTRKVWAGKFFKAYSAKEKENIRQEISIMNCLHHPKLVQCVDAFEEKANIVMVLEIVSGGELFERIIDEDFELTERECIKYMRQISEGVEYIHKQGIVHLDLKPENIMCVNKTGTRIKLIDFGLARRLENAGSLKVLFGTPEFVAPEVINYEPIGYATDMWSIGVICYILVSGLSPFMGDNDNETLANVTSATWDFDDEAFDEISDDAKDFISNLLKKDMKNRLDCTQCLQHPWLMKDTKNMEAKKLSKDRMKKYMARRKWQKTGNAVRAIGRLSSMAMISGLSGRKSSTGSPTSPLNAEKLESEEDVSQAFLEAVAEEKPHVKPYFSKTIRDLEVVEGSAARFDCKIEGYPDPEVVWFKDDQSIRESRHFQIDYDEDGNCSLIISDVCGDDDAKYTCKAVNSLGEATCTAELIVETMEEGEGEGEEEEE
Chain of MELK (Q14680 whole entry): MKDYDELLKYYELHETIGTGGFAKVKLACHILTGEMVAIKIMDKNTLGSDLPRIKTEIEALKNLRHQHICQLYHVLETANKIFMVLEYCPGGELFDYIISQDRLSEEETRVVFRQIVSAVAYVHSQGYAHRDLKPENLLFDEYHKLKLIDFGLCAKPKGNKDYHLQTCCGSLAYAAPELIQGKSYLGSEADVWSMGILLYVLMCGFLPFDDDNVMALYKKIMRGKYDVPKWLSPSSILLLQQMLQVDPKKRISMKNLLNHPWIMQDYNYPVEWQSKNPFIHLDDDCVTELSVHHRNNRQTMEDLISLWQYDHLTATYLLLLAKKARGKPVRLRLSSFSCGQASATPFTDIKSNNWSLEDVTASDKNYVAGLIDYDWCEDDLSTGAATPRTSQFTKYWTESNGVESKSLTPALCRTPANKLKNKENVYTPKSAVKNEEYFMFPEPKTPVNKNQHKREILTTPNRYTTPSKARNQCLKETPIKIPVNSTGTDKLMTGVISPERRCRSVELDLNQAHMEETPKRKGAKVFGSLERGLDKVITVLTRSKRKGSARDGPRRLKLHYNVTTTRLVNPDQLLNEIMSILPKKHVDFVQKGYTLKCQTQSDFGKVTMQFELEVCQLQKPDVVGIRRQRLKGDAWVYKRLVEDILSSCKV
Chain of JNK3 (P53779 whole entry): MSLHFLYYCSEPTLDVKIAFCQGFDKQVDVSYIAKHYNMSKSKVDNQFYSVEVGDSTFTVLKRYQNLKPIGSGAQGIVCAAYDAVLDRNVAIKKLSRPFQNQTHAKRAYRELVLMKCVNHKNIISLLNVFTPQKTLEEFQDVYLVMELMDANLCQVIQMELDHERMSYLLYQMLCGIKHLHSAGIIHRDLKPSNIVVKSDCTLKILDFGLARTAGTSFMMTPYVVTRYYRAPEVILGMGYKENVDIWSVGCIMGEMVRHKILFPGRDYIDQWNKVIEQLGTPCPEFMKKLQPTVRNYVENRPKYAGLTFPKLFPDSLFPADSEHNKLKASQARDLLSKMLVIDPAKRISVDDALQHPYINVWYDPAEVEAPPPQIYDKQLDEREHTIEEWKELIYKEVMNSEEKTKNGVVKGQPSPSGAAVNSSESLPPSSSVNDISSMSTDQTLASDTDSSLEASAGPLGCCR
Chain of DAPK1 (P53355 whole entry): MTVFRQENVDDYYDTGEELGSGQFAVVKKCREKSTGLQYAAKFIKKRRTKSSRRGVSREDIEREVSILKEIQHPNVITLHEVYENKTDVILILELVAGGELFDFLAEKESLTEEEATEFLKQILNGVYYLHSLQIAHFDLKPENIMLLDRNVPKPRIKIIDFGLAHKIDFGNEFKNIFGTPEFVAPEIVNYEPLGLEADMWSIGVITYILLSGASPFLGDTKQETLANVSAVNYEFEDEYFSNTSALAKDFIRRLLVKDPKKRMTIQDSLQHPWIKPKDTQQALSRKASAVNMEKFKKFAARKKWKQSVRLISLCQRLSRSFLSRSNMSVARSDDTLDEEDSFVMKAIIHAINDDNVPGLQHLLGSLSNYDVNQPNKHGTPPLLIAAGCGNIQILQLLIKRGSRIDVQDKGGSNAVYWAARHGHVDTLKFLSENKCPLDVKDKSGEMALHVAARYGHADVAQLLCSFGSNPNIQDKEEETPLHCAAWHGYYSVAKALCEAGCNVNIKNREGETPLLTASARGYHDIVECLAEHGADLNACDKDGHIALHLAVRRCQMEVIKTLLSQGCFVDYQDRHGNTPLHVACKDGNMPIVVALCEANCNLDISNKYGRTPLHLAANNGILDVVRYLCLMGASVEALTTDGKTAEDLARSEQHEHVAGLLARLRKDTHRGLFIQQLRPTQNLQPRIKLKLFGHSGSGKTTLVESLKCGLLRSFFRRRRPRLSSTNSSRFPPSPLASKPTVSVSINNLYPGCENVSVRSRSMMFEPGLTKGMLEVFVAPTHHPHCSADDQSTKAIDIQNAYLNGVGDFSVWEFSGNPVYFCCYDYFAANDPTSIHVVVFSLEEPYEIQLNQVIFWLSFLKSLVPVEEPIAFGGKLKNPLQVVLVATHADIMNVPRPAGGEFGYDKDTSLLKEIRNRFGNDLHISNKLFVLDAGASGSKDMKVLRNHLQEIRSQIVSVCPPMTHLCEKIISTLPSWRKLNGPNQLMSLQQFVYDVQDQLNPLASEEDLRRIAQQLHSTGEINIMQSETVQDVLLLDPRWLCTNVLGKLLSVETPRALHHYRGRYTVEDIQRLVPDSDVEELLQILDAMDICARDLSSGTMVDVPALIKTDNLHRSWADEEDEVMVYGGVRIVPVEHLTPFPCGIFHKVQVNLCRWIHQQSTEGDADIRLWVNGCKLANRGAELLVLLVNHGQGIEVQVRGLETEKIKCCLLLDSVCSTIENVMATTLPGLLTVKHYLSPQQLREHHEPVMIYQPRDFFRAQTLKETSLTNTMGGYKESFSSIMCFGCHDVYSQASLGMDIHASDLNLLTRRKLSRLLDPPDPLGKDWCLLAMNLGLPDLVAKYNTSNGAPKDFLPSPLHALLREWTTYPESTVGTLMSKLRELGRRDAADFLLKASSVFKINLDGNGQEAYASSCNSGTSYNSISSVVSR
Chain of NEK2a (P51955 whole entry): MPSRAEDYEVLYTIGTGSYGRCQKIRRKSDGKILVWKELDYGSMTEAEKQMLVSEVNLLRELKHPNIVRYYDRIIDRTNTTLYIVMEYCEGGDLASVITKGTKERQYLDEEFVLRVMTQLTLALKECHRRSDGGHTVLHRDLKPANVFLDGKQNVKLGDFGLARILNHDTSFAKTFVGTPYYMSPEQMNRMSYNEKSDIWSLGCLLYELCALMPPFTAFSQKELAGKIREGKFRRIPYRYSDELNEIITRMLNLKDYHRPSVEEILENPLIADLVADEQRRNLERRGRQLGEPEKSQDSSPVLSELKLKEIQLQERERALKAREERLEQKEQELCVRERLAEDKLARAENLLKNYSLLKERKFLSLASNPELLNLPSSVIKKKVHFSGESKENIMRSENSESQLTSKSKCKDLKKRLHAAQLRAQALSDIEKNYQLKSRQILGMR

With `Cc1nc2ccc3sc(NC(=O)c4ccc5ncsc5c4)nc3c2s1` [3A5, N-(2-methyl[1,3]thiazolo[5,4-e][1,3]benzothiazol-7-yl)-1,3-benzothiazole-6-carboxamide] the “RIPK2 activity in kinase profiling” value (RIPK2) was 83, the “Aurora B activity in kinase profiling” value (Aurora B) was 69 and the “SmMLCK activity in kinase profiling” value (SmMLCK) was 50. For the same compound, the “EPH-B2 activity in kinase profiling” value (EPH-B2) was 90, the “FGF-R1 activity in kinase profiling” value (FGF-R1) was 149 and the “MSK1 activity in kinase profiling” value (MSK1) was 86. The “PKCγ activity in kinase profiling” value (PKCγ) was 102, the “ERK8 activity in kinase profiling” value (ERK8) was 82 and the “PKA activity in kinase profiling” value (PKA) was 98. For the same compound, the “DAPK1 activity in kinase profiling” value (DAPK1) was 73, the “IR activity in kinase profiling” value (IR) was 127 and the “RSK2 activity in kinase profiling” value (RSK2) was 120. The “SRPK1 activity in kinase profiling” value (SRPK1) was 56, the “CAMKKb activity in kinase profiling” value (CAMKKb) was 98 and the “JAK2 activity in kinase profiling” value (JAK2) was 112. For the same compound, the “CSK activity in kinase profiling” value (CSK) was 93, the “JNK3 activity in kinase profiling” value (JNK3) was 107 and the “NEK2a activity in kinase profiling” value (NEK2a) was 81. The “ERK5 activity in kinase profiling” value (ERK5) was 39, the “MKK1 activity in kinase profiling” value (MKK1) was 72 and the “MARK4 activity in kinase profiling” value (MARK4) was 80. For the same compound, the “p38g MAPK activity in kinase profiling” value (p38g MAPK) was 107, the “PRK2 activity in kinase profiling” value (PRK2) was 95 and the “CAMK1 activity in kinase profiling” value (CAMK1) was 85. For the same compound, the “BRSK2 activity in kinase profiling” value (BRSK2) was 88, the “MPSK1 activity in kinase profiling” value (MPSK1) was 150 and the “JNK2 activity in kinase profiling” value (JNK2) was 100. The “S6K1 activity in kinase profiling” value (S6K1) was 72, the “MELK activity in kinase profiling” value (MELK) was 69 and the “CLK2 activity in kinase profiling” value (CLK2) was 3.39. The inhibition at 1 µM (CLK2) was 97%, the “MKK2 activity in kinase profiling” value (MKK2) was 115 and the “STK33 activity in kinase profiling” value (STK33) was 88. For the same compound, the “TAK1 activity in kinase profiling” value (TAK1) was 87, the “MLK3 activity in kinase profiling” value (MLK3) was 49 and the “NUAK1 activity in kinase profiling” value (NUAK1) was 73. The “PAK6 activity in kinase profiling” value (PAK6) was 96, the “DDR2 activity in kinase profiling” value (DDR2) was 88 and the “MINK1 activity in kinase profiling” value (MINK1) was 89. The “CDK2-Cyclin A activity in kinase profiling” value (CDK2-Cyclin A) was 115, the “MARK2 activity in kinase profiling” value (MARK2) was 87 and the “EPH-B1 activity in kinase profiling” value (EPH-B1) was 101. For the same compound, the “PDK1 activity in kinase profiling” value (PDK1) was 93.
For `CSc1nc2ccc3nc(NC(=O)c4ccco4)sc3c2s1` [5E4, N-[7-(methylsulfanyl)[1,3]thiazolo[4,5-g][1,3]benzothiazol-2-yl]-2-furamide], the “RIPK2 activity in kinase profiling” value (RIPK2) was 34, the “Aurora B activity in kinase profiling” value (Aurora B) was 64 and the “SmMLCK activity in kinase profiling” value (SmMLCK) was 43. The “EPH-B2 activity in kinase profiling” value (EPH-B2) was 94, the “FGF-R1 activity in kinase profiling” value (FGF-R1) was 109 and the “MSK1 activity in kinase profiling” value (MSK1) was 109. For the same compound, the “PKCγ activity in kinase profiling” value (PKCγ) was 100, the “ERK8 activity in kinase profiling” value (ERK8) was 83 and the “PKA activity in kinase profiling” value (PKA) was 97. For the same compound, the “DAPK1 activity in kinase profiling” value (DAPK1) was 76, the “IR activity in kinase profiling” value (IR) was 116 and the “RSK2 activity in kinase profiling” value (RSK2) was 100. The “SRPK1 activity in kinase profiling” value (SRPK1) was 81, the “CAMKKb activity in kinase profiling” value (CAMKKb) was 91 and the “JAK2 activity in kinase profiling” value (JAK2) was 105. For the same compound, the “CSK activity in kinase profiling” value (CSK) was 99, the “JNK3 activity in kinase profiling” value (JNK3) was 123 and the “NEK2a activity in kinase profiling” value (NEK2a) was 83. For the same compound, the “ERK5 activity in kinase profiling” value (ERK5) was 39, the “MKK1 activity in kinase profiling” value (MKK1) was 85 and the “MARK4 activity in kinase profiling” value (MARK4) was 87. The “p38g MAPK activity in kinase profiling” value (p38g MAPK) was 105, the “PRK2 activity in kinase profiling” value (PRK2) was 88 and the “CAMK1 activity in kinase profiling” value (CAMK1) was 106. For the same compound, the “BRSK2 activity in kinase profiling” value (BRSK2) was 83, the “MPSK1 activity in kinase profiling” value (MPSK1) was 114 and the “JNK2 activity in kinase profiling” value (JNK2) was 107. For the same compound, the “S6K1 activity in kinase profiling” value (S6K1) was 80, the “MELK activity in kinase profiling” value (MELK) was 71 and the “CLK2 activity in kinase profiling” value (CLK2) was 3. The inhibition at 1 µM (CLK2) was 97%, the “MKK2 activity in kinase profiling” value (MKK2) was 121 and the “STK33 activity in kinase profiling” value (STK33) was 110. The “TAK1 activity in kinase profiling” value (TAK1) was 67, the “MLK3 activity in kinase profiling” value (MLK3) was 18 and the “NUAK1 activity in kinase profiling” value (NUAK1) was 82. For the same compound, the “PAK6 activity in kinase profiling” value (PAK6) was 104, the “DDR2 activity in kinase profiling” value (DDR2) was 95 and the “MINK1 activity in kinase profiling” value (MINK1) was 8. The “CDK2-Cyclin A activity in kinase profiling” value (CDK2-Cyclin A) was 101, the “MARK2 activity in kinase profiling” value (MARK2) was 90 and the “EPH-B1 activity in kinase profiling” value (EPH-B1) was 93. For the same compound, the “PDK1 activity in kinase profiling” value (PDK1) was 88.
